In patent publication US12071424B2, “IRE1 small molecule inhibitors” (Cornell University, priority 2017, dated 2024):

How the values were obtained:
IRE1a [1] = target: T1, IRE1a (Homo sapiens, UniProt O75460); assay: In vitro FRET assay (IRE1a cleavage of XBP1 RNA probe); assay type: biochemical; conditions: 2 nM SignalChem IRE1a, tested as Formic Acid Salt (37: HCl Salt)
T1 construct: purchased SignalChem
Summary of the method: Human

IRE1a [2] = assay: IRE1a Endoribonuclease Nanoluciferase Assay (XBP1 luciferase reporter in 293T cells); assay type: cell-based, human; conditions: Homo sapiens, HEK-293T, ER stressor, tested as Formic Acid Salt (37: HCl Salt)
Summary of the method: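 293T cells transiently transfected with a PGK-Luc2-P2A-XBP1u-Nanoluciferase-Pest reporter, replated after 6 h, then treated next day with ER stressors ± inhibitors. After lysis, firefly luminescence then nanoluciferase luminescence read sequentially (1000 ms integration each).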

293T cells = assay: Growth assay (cytotoxicity); assay type: cell-based, human; conditions: Homo sapiens, HEK-293T, Formic Acid Salt (37: HCl Salt)
Method: A growth assay was performed to evaluate the compounds disclosed herein for cytotoxicity. Briefly, 5,000,000 293T cells were resuspended in 18 mL of cDMEM for a final concentration of […]. […] In a separate 96 well dilution plate, 199 uL cDMEM and 1 uL of DMSO or any one of the compounds disclosed herein (shown as Test Compound 1, 2, 3, 4, 5, or 6 below) were added to wells A4, A8, C4, C8, E4, E8, G4, and G8, 133.3 uL cDMEM was added to wells 1, 2, 3, 5, 6, and 7 in rows A, C, E and G of the dilution plate. Compounds were serially diluted leftwards in threefold dilutions (66.7 uL into 133.3 uL cDMEM). 20 uL of each dilution was transferred in duplicate (duplicates in vertical paired wells) to the cells plated in the 96-well plate shown in Table 5, to the total concentrations shown below. 200 uL cDMEM was addled to media wells (wells G5-H8). The plate was then placed in a humidified chamber for a […], and then photographed (media was more yellow in wells with potent cell growth). Absorbance was then measured at ˜[…] (lower for more acidic media) and ˜450 nM (higher for more acidic media).

hERG channel = target: T2, hERG channel (Homo sapiens, UniProt Q12809); assay: hERG potassium ion channel automated planar clamp (QPatch) in stable CHO cell line; assay type: cell-based; conditions: Formic Acid Salt (37: HCl Salt), read-out: hERG channel blockade Mean IC50
T2 construct: expressed in transfected cells
T2 sequence (Q12809 whole entry): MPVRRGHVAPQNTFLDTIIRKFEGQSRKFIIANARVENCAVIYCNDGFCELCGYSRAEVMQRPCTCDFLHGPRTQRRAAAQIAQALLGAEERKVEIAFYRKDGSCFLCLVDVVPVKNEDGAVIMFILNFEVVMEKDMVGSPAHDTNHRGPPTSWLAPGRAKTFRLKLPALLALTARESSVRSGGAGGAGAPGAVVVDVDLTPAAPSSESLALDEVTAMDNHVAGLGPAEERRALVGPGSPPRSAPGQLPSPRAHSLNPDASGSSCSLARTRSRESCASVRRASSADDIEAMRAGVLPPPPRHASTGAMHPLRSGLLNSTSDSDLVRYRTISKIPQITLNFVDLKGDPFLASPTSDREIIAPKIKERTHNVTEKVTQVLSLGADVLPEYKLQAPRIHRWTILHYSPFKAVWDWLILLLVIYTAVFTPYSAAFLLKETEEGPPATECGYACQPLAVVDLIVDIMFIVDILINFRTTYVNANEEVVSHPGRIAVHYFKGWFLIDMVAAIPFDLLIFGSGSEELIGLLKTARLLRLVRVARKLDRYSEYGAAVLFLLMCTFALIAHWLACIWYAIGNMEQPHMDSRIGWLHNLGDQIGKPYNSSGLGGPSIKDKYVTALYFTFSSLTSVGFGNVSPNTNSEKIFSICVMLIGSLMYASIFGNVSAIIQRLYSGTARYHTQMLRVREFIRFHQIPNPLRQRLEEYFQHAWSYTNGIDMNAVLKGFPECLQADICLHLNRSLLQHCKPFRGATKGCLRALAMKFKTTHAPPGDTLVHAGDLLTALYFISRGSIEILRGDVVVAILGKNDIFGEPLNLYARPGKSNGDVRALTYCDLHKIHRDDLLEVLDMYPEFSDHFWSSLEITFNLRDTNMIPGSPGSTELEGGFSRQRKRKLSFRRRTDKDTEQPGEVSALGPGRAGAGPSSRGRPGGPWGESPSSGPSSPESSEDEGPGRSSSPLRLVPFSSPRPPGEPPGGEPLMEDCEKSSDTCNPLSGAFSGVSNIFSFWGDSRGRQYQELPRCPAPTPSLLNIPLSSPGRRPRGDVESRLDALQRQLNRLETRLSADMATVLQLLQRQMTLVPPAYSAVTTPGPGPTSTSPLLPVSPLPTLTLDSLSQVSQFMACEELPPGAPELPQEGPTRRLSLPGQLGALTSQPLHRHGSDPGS
Method: Blockade of the cardiac ion channel coded by the hERG gene can lead to cardiac arrhythmia. […] To determine the viability of the compounds disclosed herein as pharmacological agents that would not affect the hERG channel blockade, a standard automated planar clamp method was employed to determine the IC50 for various test compounds on their inhibition of the channel. An electrophysiological assay was prepared to measure the electric current passing through the hERG channel expressed in a stable CHO cell line by applying the planar clamp method. This assay was performed using the automated QPatch platform (Sophion, Denmark) which allows fast and accurate electrophysiological characterization of the hERG ion channel and the determination of IC50 values for the test compounds, as shown in Table 9.

T1 sequence (O75460 19-977): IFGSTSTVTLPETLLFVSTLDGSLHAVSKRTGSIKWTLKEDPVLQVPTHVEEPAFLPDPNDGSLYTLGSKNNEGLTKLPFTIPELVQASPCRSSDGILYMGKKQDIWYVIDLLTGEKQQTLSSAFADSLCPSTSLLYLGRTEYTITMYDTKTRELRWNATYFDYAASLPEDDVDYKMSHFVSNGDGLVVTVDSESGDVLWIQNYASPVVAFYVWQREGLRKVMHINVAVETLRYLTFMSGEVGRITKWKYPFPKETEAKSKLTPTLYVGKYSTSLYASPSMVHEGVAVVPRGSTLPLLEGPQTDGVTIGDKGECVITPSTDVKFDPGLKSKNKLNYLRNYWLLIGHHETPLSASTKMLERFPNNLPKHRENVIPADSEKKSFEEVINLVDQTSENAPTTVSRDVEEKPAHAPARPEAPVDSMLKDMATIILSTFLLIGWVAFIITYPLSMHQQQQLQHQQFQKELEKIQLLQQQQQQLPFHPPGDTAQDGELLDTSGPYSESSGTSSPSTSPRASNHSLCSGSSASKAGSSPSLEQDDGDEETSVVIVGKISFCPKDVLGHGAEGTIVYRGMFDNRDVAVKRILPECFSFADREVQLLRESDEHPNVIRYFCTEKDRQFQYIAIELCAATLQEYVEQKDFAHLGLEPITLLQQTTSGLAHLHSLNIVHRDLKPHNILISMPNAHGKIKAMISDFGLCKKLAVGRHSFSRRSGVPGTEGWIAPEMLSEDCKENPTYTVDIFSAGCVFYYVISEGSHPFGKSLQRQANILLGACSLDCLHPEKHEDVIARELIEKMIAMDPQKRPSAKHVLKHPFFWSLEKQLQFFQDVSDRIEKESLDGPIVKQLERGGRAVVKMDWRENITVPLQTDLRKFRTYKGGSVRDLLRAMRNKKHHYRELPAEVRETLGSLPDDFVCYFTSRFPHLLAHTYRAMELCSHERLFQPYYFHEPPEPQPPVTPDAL

SMILES	IC50 (IRE1a [1]) [nM]	EC50 (IRE1a [2]) [nM]	viability at 0.185 µM (293T cells) [%]	viability at 0.5556 µM (293T cells) [%]	viability at 1.667 µM (293T cells) [%]	viability at 5 µM (293T cells) [%]	IC50 (hERG channel) [µM]
CCc1cc(-c2ccc(NS(=O)(=O)c3ccccc3Cl)nc2)cc2cnc(N[C@H]3CC[C@H](N)CC3)nc12 [Compound 27, N-(5-(2-(((1r,4)-4-aminocyclohexyl)amino)-8-ethylquinazolin-6-yl)pyridin-2-yl)-2-chlorobenzene-sulfonamide]	≤ 5	≤ 5	75 to 100	75 to 100	50 to 75	25 to 50	–
CCc1cc(-c2ccc(NS(=O)(=O)c3ccccc3Cl)nn2)cc2cnc(N[C@H]3CC[C@H](N)CC3)nc12 [Compound 32, N-(6-(2-(((1r,4r)-4-aminocyclohexyl)amino)-8-ethylquinazolin-6-yl)pyridazin-3-yl)-2-chlorobenzene-sulfonamide]	≤ 5	≤ 5	75 to 100	75 to 100	50 to 75	25 to 50	–
CCc1cc(-c2cnc(NS(=O)(=O)c3ccccc3Cl)nc2C)cc2cnc(N[C@H]3CC[C@H](N)CC3)nc12 [Compound 23]	≤ 5	≤ 5	75 to 100	50 to 75	50 to 75	75 to 100	–
CCc1cc(-c2nnc(NS(=O)(=O)c3ccccc3Cl)cc2C)cc2cnc(N[C@H]3CC[C@H](N)CC3)nc12 [Compound 67, N-(6-(2-(((1r,4r)-4-aminocyclohexyl)amino)-8-ethylquinazolin-6-yl)-5-methylpyridazin-3-yl)-2-chlorobenzene-sulfonamide]	≤ 5	5 to 50	75 to 100	75 to 100	50 to 75	50 to 75	–
CCc1cc(-c2ccc(NS(=O)(=O)c3ccccc3Cl)cc2F)cc2cnc(N[C@H]3CC[C@H](N)CC3)nc12 [Compound 35, N-(4-(2-(((1r,4r)-4-aminocyclohexyl)amino)-8-ethylquinazolin-6-yl)-3-fluorophenyl)-2-chlorobenzene-sulfonamide]	≤ 5	≤ 5	75 to 100	75 to 100	50 to 75	25 to 50	–
CCc1cc(NS(=O)(=O)c2ccccc2Cl)ccc1-c1cc(CC)c2nc(N[C@H]3CC[C@H](N)CC3)ncc2c1 [Compound 34, N-(4-(2-(((1r,4r)-4-aminocyclohexyl)amino)-8-ethylquinazolin-6-yl)-3-ethylphenyl)-2-chlorobenzene-sulfonamide]	≤ 5	5 to 50	75 to 100	75 to 100	75 to 100	≤ 25	–
CCc1cc(-c2cc(NS(=O)(=O)c3ccccc3Cl)n[nH]2)cc2cnc(N[C@H]3CC[C@H](N)CC3)nc12 [Compound 29, N-(5-(2-(((1r,4r)-4-aminocyclohexyl)amino)-8-ethylquinazolin-6-yl)-1H-pyrazol-3-yl)-2-chlorobenzene-sulfonamide]	≤ 5	100 to 10000	75 to 100	75 to 100	75 to 100	75 to 100	–
CCc1cc(-c2ccc(NS(=O)(=O)c3ccccc3Cl)c(F)c2)cc2cnc(N[C@H]3CC[C@H](N(C)C)CC3)nc12 [Compound 69, 2-chloro-N-(4-(2-(((1r,4r)-4-(dimethylamino)cyclohexyl)amino)-8-ethylquinazolin-6-yl)-2-fluorophenyl) benzene-sulfonamide]	≤ 5	≤ 5	–	75 to 100	50 to 75	50 to 75	10 to 50
CCc1cc(-c2cnc(NS(=O)(=O)c3ccccc3Cl)c(F)c2)cc2cnc(N[C@H]3CC[C@H](N)CC3)nc12 [Compound 55, N-(5-(2-(((1r,4r)-4-aminocyclohexyl)amino)-8-ethylquinazolin-6-yl)-3-fluoropyridin-2-yl)-2-chlorobenzene-sulfonamide]	≤ 5	≤ 5	75 to 100	75 to 100	75 to 100	75 to 100	–
CCc1cc(-c2ccc(NS(=O)(=O)c3ccccc3Cl)cn2)cc2cnc(N[C@H]3CC[C@H](N)CC3)nc12 [Compound 28]	≤ 5	≤ 5	75 to 100	75 to 100	50 to 75	25 to 50	–
CCc1cc(-c2ncc(NS(=O)(=O)c3ccccc3Cl)cn2)cc2cnc(N[C@H]3CC[C@H](N)CC3)nc12 [Compound 33]	≤ 5	≤ 5	75 to 100	75 to 100	75 to 100	50 to 75	–
CCc1cc(-c2cnc(NS(=O)(=O)c3ccccc3Cl)nc2OC)cc2cnc(N[C@H]3CC[C@H](N)CC3)nc12 [Compound 46, N-(5-(2-(((1r,4r)-4-aminocyclohexyl)amino)-8-ethylquinazolin-6-yl)-4-methoxypyrimidin-2-yl)-2-chlorobenzene-sulfonamide]	≤ 5	≤ 5	75 to 100	75 to 100	75 to 100	75 to 100	–
CCc1cc(-c2ccc(NS(=O)(=O)c3ccccc3Cl)c(F)c2C)cc2cnc(N[C@H]3CC[C@H](N)CC3)nc12 [Compound 71, N-(4-(2-(((1r,4r)-4-aminocyclohexyl)amino)-8-ethylquinazolin-6-yl)-2-fluoro-3-methylphenyl)-2-chlorobenzene-sulfonamide]	≤ 5	≤ 5	75 to 100	75 to 100	50 to 75	25 to 50	–
CCc1cc(-c2nnc(NS(=O)(=O)c3ccccc3Cl)cc2OC)cc2cnc(N[C@H]3CC[C@H](N)CC3)nc12 [Compound 65, N-(6-(2-(((1r,4r)-4-aminocyclohexyl)amino)-8-ethylquinazolin-6-yl)-5-methoxypyridazin-3-yl)-2-chlorobenzene-sulfonamide]	≤ 5	5 to 50	75 to 100	75 to 100	75 to 100	50 to 75	–
CCc1cc(-c2ncc(NS(=O)(=O)c3ccccc3Cl)cc2F)cc2cnc(N[C@H]3CC[C@H](N)CC3)nc12 [Compound 52]	≤ 5	≤ 5	75 to 100	75 to 100	75 to 100	50 to 75	–
CCc1cc(-c2ccc(NS(=O)(=O)c3ccccc3Cl)c(F)c2)cc2cnc(N[C@H]3CC[C@H](N)CC3)nc12 [Compound 24, N-(4-(2-(((1r,4r)-4-aminocyclohexyl)amino)-8-ethylquinazolin-6-yl)-2-fluorophenyl)-2-chlorobenzene-sulfonamide]	≤ 5	≤ 5	75 to 100	75 to 100	50 to 75	50 to 75	1 to 10
CCc1cc(-c2cnc(NS(=O)(=O)c3ccccc3Cl)cn2)cc2cnc(N[C@H]3CC[C@H](N)CC3)nc12 [Compound 25, N-(S-(2-(((1r,4r)-4-aminocyclohexyl)amino)-8-ethylquinazolin-6-yl)pyrazin-2-yl)-2-chlorobenzene-sulfonamide]	≤ 5	≤ 5	75 to 100	75 to 100	75 to 100	75 to 100	–
CCc1cc(-c2cc(F)c(NS(=O)(=O)c3ccccc3Cl)nc2OC)cc2cnc(N[C@H]3CC[C@H](NC)CC3)nc12 [Compound 127, 2-chloro-N-(5-(8-ethyl-2-(((1r,4r)-4-(methylamino)cyclohexyl)amino)quinazolin-6-yl)-3-fluoro-6-methoxypyridin-2-yl)benzenesulfonamide]	≤ 5	≤ 5	–	–	–	–	–
